ChEMBL document CHEMBL1201862, “PubChem BioAssay data set” (2004)
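96-well plates; 48 h exposure; 5 concentrations. Endpoints by linear interpolation between flanking doses. Not reached: highest tested concentration assigned. GI50: concentration for 50% inhibition of growth.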 Active and inactive are the calls of the source. No stated cut-off is given here; in the data, active = GI50 up to about 1.1 µM and inactive = higher.

How the values were obtained:
Assay in all cases: DTP human tumour cell line panel, 48 h
[1] = test system: M14
[2] = test system: A549
[3] = test system: OVCAR-4
[4] = test system: RXF 393
[5] = test system: SF-268
[6] = test system: Malme-3M
[7] = test system: CAKI-1
[8] = test system: KM12
[9] = test system: SK-MEL-2
[10] = test system: OVCAR-5
[11] = test system: HCT-15
[12] = test system: RPMI-8226
[13] = test system: U-251
[14] = test system: MOLT-4
[15] = test system: CCRF-CEM
[16] = test system: UO-31
[17] = test system: SNB-75

Row | SMILES | GI50 [1] | GI50 [2] | GI50 [3] | GI50 [4] | GI50 [5] | GI50 [6] | GI50 [7] | GI50 [8] | GI50 [9] | GI50 [10] | GI50 [11] [µM] | GI50 [12] | GI50 [13] | GI50 [14] | GI50 [15] | GI50 [16] | GI50 [17]
1 | COc1ccc(C[C@H](N)C(=O)N2C[C@@H](CO)C[C@@H](n3ccc(=O)[nH]c3=O)C2)cc1 | > 100 µM (inactive) | > 100 µM (inactive) | > 100 µM (inactive) | > 100 µM (inactive) | > 100 µM (inactive) | > 100 µM (inactive) | > 100 µM (inactive) | > 100 µM (inactive) | > 100 µM (inactive) | > 100 µM (inactive) | > 100 | > 100 µM (inactive) | > 100 µM (inactive) | > 100 µM (inactive) | > 100 µM (inactive) | > 100 µM (inactive) | 
2 | O=C(NCCc1ccccc1)C1C(=O)C(=O)N(CCc2ccccc2)C1=O (stereo not drawn) | > 100 µM (inactive) | > 100 µM (inactive) |  |  | > 100 µM (inactive) | > 100 µM (inactive) | > 100 µM (inactive) | > 100 µM (inactive) | > 100 µM (inactive) |  | > 100 | > 100 µM (inactive) | > 100 µM (inactive) | > 100 µM (inactive) | > 100 µM (inactive) | > 100 µM (inactive) | > 100 µM (inactive)
3 | NNC(=S)N/N=C(\CCCC(=O)NCCc1ccccc1)CC(=O)c1ccccc1 | > 100 µM (inactive) | > 100 µM (inactive) | > 100 µM (inactive) | > 100 µM (inactive) | > 100 µM (inactive) | > 100 µM (inactive) |  | > 100 µM (inactive) | > 100 µM (inactive) | > 100 µM (inactive) | > 100 |  | > 100 µM (inactive) |  |  | > 100 µM (inactive) | 
4 | CCNC(=O)CCN(C(=O)O)S(=O)(=O)c1ccc(NC(=O)c2ccccc2)cc1 | > 100 µM (inactive) | > 100 µM (inactive) | > 100 µM (inactive) |  | > 100 µM (inactive) | > 100 µM (inactive) | > 100 µM (inactive) | > 100 µM (inactive) | > 100 µM (inactive) | > 100 µM (inactive) | > 100 | > 100 µM (inactive) | > 100 µM (inactive) | > 100 µM (inactive) | 59.4 µM (inactive) | > 100 µM (inactive) | > 100 µM (inactive)
5 | O=C(O)CN1CCSc2ccccc2CN(CC(=O)O)CCSc2ccccc2C1 | > 100 µM (inactive) | > 100 µM (inactive) |  |  | > 100 µM (inactive) | > 100 µM (inactive) | > 100 µM (inactive) | > 100 µM (inactive) | > 100 µM (inactive) | > 100 µM (inactive) | > 100 | > 100 µM (inactive) | > 100 µM (inactive) |  | > 100 µM (inactive) | > 100 µM (inactive) | > 100 µM (inactive)
6 | CC(=O)O[C@H]1CC[C@@]2(C)C(=CC[C@H]3C4=CC=C(C(C)=O)[C@@]4(C)CCC32)C1 (stereo partly drawn) | 33.7 µM (inactive) | 36.4 µM (inactive) | 40.6 µM (inactive) | 26.5 µM (inactive) | 32.4 µM (inactive) | 31.9 µM (inactive) | 34.8 µM (inactive) | 19.9 µM (inactive) |  | 27.9 µM (inactive) | 29.8 | 15.3 µM (inactive) | 35.7 µM (inactive) | 11.4 µM (inactive) | 21.4 µM (inactive) | 43.7 µM (inactive) | 31.1 µM (inactive)
7 | OCC(O)COc1ccc(F)cc1 (stereo not drawn) | > 100 µM (inactive) | > 100 µM (inactive) | > 100 µM (inactive) | > 100 µM (inactive) | > 100 µM (inactive) | > 100 µM (inactive) | > 100 µM (inactive) | > 100 µM (inactive) | > 100 µM (inactive) | > 100 µM (inactive) | > 100 |  | > 100 µM (inactive) | > 100 µM (inactive) | > 100 µM (inactive) | > 100 µM (inactive) | > 100 µM (inactive)
8 | C/C=C/C(=O)Oc1cccc2cccnc12 | 3.79 µM (inactive) | 18.8 µM (inactive) | 4.39 µM (inactive) | 12.4 µM (inactive) | 3.2 µM (inactive) | 1.45 µM (inactive) | 32.6 µM (inactive) | 16 µM (inactive) |  | 16.5 µM (inactive) | 7 | 9.73 µM (inactive) | 1.14 µM (inactive) | > 20.6 µM (inactive) | 3.7 µM (inactive) | 6.97 µM (inactive) | 14.4 µM (inactive)
9 | COc1ccc(OC(C)C(=O)O)c2c(=O)ccccc12 (stereo not drawn) | > 100 µM (inactive) | > 100 µM (inactive) | > 100 µM (inactive) | > 100 µM (inactive) | > 100 µM (inactive) | > 100 µM (inactive) |  | > 100 µM (inactive) | > 100 µM (inactive) | > 100 µM (inactive) | > 100 | > 100 µM (inactive) | > 100 µM (inactive) | > 100 µM (inactive) | > 100 µM (inactive) | > 100 µM (inactive) | > 100 µM (inactive)
10 | CSCCC(NC(=O)C(Cc1ccccc1)NC(=O)CNC(=O)CNC(=O)C(N)Cc1ccc(O)cc1)C(=O)O (stereo not drawn) |  | > 100 µM (inactive) | > 100 µM (inactive) | > 100 µM (inactive) | > 100 µM (inactive) | > 100 µM (inactive) | > 100 µM (inactive) | > 100 µM (inactive) | > 100 µM (inactive) | > 55.5 µM (inactive) | > 100 |  | > 100 µM (inactive) | > 100 µM (inactive) | > 100 µM (inactive) | > 100 µM (inactive) | > 90.2 µM (inactive)
11 | COc1ccc2c(c1O)C(=O)C(CCC(=O)O)CC2 (stereo not drawn) | > 100 µM (inactive) | > 100 µM (inactive) | > 100 µM (inactive) | > 100 µM (inactive) |  |  | > 100 µM (inactive) |  |  |  | > 100 | > 100 µM (inactive) | > 100 µM (inactive) | > 100 µM (inactive) | > 100 µM (inactive) |  | > 100 µM (inactive)
12 | NC(=O)c1ncn2c1NCC1OC2C(O)C1O (stereo not drawn) | > 100 µM (inactive) | > 100 µM (inactive) | > 100 µM (inactive) | > 100 µM (inactive) | > 100 µM (inactive) | > 100 µM (inactive) | > 100 µM (inactive) | > 100 µM (inactive) | > 100 µM (inactive) | > 100 µM (inactive) |  |  | > 100 µM (inactive) | > 100 µM (inactive) | > 100 µM (inactive) | > 100 µM (inactive) | > 100 µM (inactive)
13 | COC(=O)C1=C(O)c2cc(OC)c(OC)c(OC)c2[C@H](c2cc(OC)c(OC)c(OC)c2)C1C(=O)OC (stereo partly drawn) | 26 µM (inactive) | 49.8 µM (inactive) | 32.6 µM (inactive) | 20.7 µM (inactive) | 42.1 µM (inactive) | 49.3 µM (inactive) | > 100 µM (inactive) | 21.9 µM (inactive) |  | > 100 µM (inactive) | 28.8 | 28.2 µM (inactive) | 36.5 µM (inactive) | 22.2 µM (inactive) | 32.8 µM (inactive) | 41.9 µM (inactive) | 38.7 µM (inactive)
14 | CCCc1ccc(NCc2cc(OC)c(OC)c(OC)c2)cc1 |  | 41.8 µM (inactive) | 32.4 µM (inactive) | 32.3 µM (inactive) | 27.7 µM (inactive) | 19.4 µM (inactive) |  | 23.1 µM (inactive) | 18.6 µM (inactive) | 26.6 µM (inactive) | 17.7 | 12.7 µM (inactive) | 29.6 µM (inactive) | 18.2 µM (inactive) | 17.8 µM (inactive) | 24.7 µM (inactive) | 29 µM (inactive)
